Experimental data from PubChem BioAssay (NCI).
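All cell lines were grown in 96-well plates and treated with compound for 48 hours. TGI: total growth inhibition.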

Experiments:
Assay in all cases: inhibition of tumour cell growth, NCI panel, 48 h
ACHN renal = tested on: ACHN renal
OVCAR-3 ovarian = tested on: OVCAR-3 ovarian
HS 578T breast = tested on: HS 578T breast
MOLT-4 leukemia = tested on: MOLT-4 leukemia
MDA-MB-435 = tested on: MDA-MB-435
MDA-MB-231 breast = tested on: MDA-MB-231 breast
CAKI-1 renal = tested on: CAKI-1 renal
SF-268 CNS = tested on: SF-268 CNS
786-0 renal = tested on: 786-0 renal
SF-539 CNS = tested on: SF-539 CNS
COLO 205 colon = tested on: COLO 205 colon

Row | SMILES | TGI (ACHN renal) [µM] | TGI (OVCAR-3 ovarian) [µM] | TGI (HS 578T breast) [µM] | TGI (MOLT-4 leukemia) [µM] | TGI (MDA-MB-435) [µM] | TGI (MDA-MB-231 breast) [µM] | TGI (CAKI-1 renal) [µM] | TGI (SF-268 CNS) [µM] | TGI (786-0 renal) [µM] | TGI (SF-539 CNS) [µM] | TGI (COLO 205 colon) [µM]
1 | Oc1ccc2c(c1)CCc1c-2n(CCN2CCOCC2)c2ccc(O)cc12 | 53 | > 100 | > 100 | > 100 | > 100 | > 100 | > 100 | > 100 | > 100 | > 100 | > 100
2 | CCN(CC)CCC(=O)c1ccc(Sc2ccc(F)cc2)cc1 | 33.2 | 40.9 | 30.8 | 33.5 | 32.4 | 34 | 29.5 | 35.1 | 23.6 | 32.9 | 41.9
3 | COc1cc(C(=O)/C=C/c2ccc(OCCSCCCCCCCCCCSCCOc3ccc(/C=C/C(=O)c4cc(OC)c(OC)c(OC)c4)cc3)cc2)cc(OC)c1OC | > 100 | > 100 | > 100 | > 100 | > 100 | > 100 | > 100 | > 100 | > 100 | > 100 | > 100
4 | S=C(NNC1=NCCCCN1)Nc1ccc(Cl)cc1 | 90.2 | > 100 | > 100 | 47.1 | > 100 | > 100 | 0.0151 | > 100 | > 100 | 76.5 | 34.5
5 | O=C(c1cc2ccccc2[nH]1)N1C2CCC1CN(CCOC(c1ccc(F)cc1)c1ccc(F)cc1)CC2 (stereo not drawn) | > 100 | > 100 | > 100 | > 100 | > 100 | > 100 | > 100 | > 100 | > 100 | > 100 | > 100
6 | O=[N+]([O-])c1ccc2nc(Cl)n[n+]([O-])c2c1 | 27.2 | 21.9 | > 100 | 3.34 | 26.9 | 28.3 | 30.1 | 30.7 | 22.8 | 25.3 | 25.2
7 | COc1ccc(CC2C3=C(CCN2C(=O)C2CCC2)CC2(CC3)OCCO2)cc1O (stereo not drawn) | > 100 | 35.4 | 73.4 | > 100 | 20 | > 100 | > 100 | > 100 | > 100 | 75.9 | 48
8 | N#C[C@H](C(=O)c1ccccc1F)c1nc2ccccc2s1 | > 100 | 63.7 | > 100 | 96.1 | > 100 | > 100 | > 100 | > 100 | > 100 | 59.8 | 53.8
9 | C=CCNC(=S)N=Nc1c(O)n(CN2CCOCC2)c2ccc([N+](=O)[O-])cc12 | > 100 | > 100 | > 100 | > 100 | > 100 | > 100 | > 100 | > 100 | > 100 | > 100 | > 100
10 | CCCC(=O)Nc1cc(/C=C/C(=O)N2CC(CCl)c3c2cc(OCc2ccccc2)c2[nH]cc(C)c32)n(C)c1 (stereo not drawn) | 0.0833 | 0.512 | 0.468 | 0.61 | 0.918 | > 25 | 2.09 | 0.907 | 2.89 | 0.165 | 1.22
11 | CCCC(=O)NC(Nc1cc(C)ccn1)(C(=O)OCC)C(F)(F)F (stereo not drawn) | > 100 | > 100 | > 100 | > 100 | > 100 | > 100 | > 100 | > 100 | > 100 | > 100 | > 100
12 | C=C1CCCC2[C@](C)(CC3=C(Cl)C(=O)C=C(OC)C3=O)C(C)CC[C@]12C (stereo partly drawn) | 10.7 | 11.9 | 26 | 6.99 | 14.2 | 16.9 | 8.83 | 11.6 | 6.53 | 9.06 | 9.76
13 | COC(=O)c1c(C)cccc1C1CN=NC12Cc1ccccc1C2=O (stereo not drawn) | > 100 | > 100 | > 100 | > 100 | > 100 | > 100 | > 100 | > 100 | > 100 | > 100 | > 100
14 | CCCCCC1CC=CC(=O)O1 (stereo not drawn) | 33 | 31.3 | 88.5 | > 100 | 20.2 | 24.1 | 20.5 | 40.8 | 15.2 | 3.83 | 16.7
15 | CC(=O)OC(CN1CCN(c2ccccn2)CC1)Cn1sc2nc(C)cc(C)c2c1=O (stereo not drawn) | 30 | 50.7 | 44.8 | > 100 | 34.5 | 32.6 | 37.2 | 32.9 | 28.1 | 29.2 | 31.2
16 | COc1cc2c(cc1C[C@H]1[C@@H]3C[C@H]4c5c(c6ccccc6n5C)C[C@@H]([C@@H]3CO[C@]1(C)OC(C)=O)N4C)c1c(n2C)C2C[C@H]3C(C(C)=O)=COC[C@H]3[C@H](C1)N2C | 10.1 | 5.98 | 13.3 | > 25 | > 25 | 11.2 | 9.06 | 24 | 5.89 | 5.87 | 6.19
17 | CN(C)CCNc1nc2ccccc2c2c1CCCC2 | 65.3 | > 100 | > 100 | 61.8 | 36.1 | 33.6 | 44.7 | > 100 | 34.2 | > 100 | > 100
18 | COC(=O)CCC(C)[C@H]1CCC2C3C(C[C@H](OC(C)=O)[C@@]21C)[C@@]1(C)CCC2(C[C@H]1C[C@H]3OC(C)=O)OOC1(CCCC1)OO2 (stereo partly drawn) | > 100 | > 100 | > 100 | > 100 | > 100 | > 100 | 92 | > 100 | > 100 | > 100 | > 100
19 | O=c1ccn(CC2(CO)CCCC2)c(=O)[nH]1 | > 100 | > 100 | > 100 | > 100 | > 100 | > 100 | > 100 | > 100 | > 100 | > 100 | > 100
20 | Cc1ccc(S(=O)(=O)CN2C(=O)C(c3ccccc3)(c3ccccc3)C23OC(c2ccc(Cl)cc2)=CC3=O)cc1 (stereo not drawn) | > 10 | > 10 | > 10 | > 10 | > 10 | > 10 | > 10 | > 10 | > 10 | > 10 | > 10
21 | CCOc1ccc2nc3nc(=O)[nH]c(C)c3c(NCCCN(CC)CC)c2c1 | > 100 | > 100 | > 100 | > 100 | > 100 | > 100 | > 100 | > 100 | > 100 | > 100 | > 100
22 | O=Cc1c2n(c3ccccc13)N[C@@](Cc1ccc(O)cc1)(C(=O)O)C2 | > 100 | > 100 | > 100 | > 100 | > 100 | > 100 | > 100 | > 100 | > 100 | > 100 | > 100
23 | CC(=O)Nc1ccc(NS(=O)(=O)c2ccc3nc(C)n(NS(=O)(=O)c4ccc(NC(C)=O)cc4)c(=O)c3c2)cc1 | > 100 | > 100 | > 100 | > 100 | > 100 | > 100 | > 100 | > 100 | > 100 | > 100 | > 100
24 | Cc1sc2[nH]c(=O)oc(=O)c2c1C | > 100 | > 100 | > 71 | > 100 | > 100 | > 100 | > 100 | > 100 | > 100 | > 100 | > 100
25 | O=C(O)CSC(CC1(c2ccc(Cl)cc2)NC(=O)CS1)c1ccc(Cl)cc1 (stereo not drawn) | > 100 | > 100 | > 100 | > 100 | > 100 | > 100 | > 100 | > 100 | > 100 | > 100 | > 100
26 | CC1=NN(c2nc(N)nc(CBr)n2)C(C)(C)C1 | 13.9 | 13.4 | 38.2 | 4.72 | 27.8 | 19.8 | 3.06 | 23 | 1.78 | 5.25 | 9.61
27 | Cn1c(NNc2ccccc2)cc(=O)[nH]c1=O | > 100 | 61.6 | > 100 | > 100 | 43.1 | > 100 | > 100 | > 100 | 44.2 | > 100 | > 100
28 | O=C(c1ccccc1)c1ccc(N2C(=O)/C(=C/Cc3ccco3)N=C2c2ccccc2)c(N2C(=O)/C(=C/Cc3ccco3)N=C2c2ccccc2)c1 | > 100 | 46.7 | 64.9 | 56.6 | 94.9 | > 100 | > 100 | > 100 | > 100 | 32.7 | > 100
29 | Clc1c(Cl)c(Cl)c2c(nnn2C2CCCO2)c1Cl (stereo not drawn) | – | > 100 | 59 | 46.3 | > 100 | > 100 | 74.9 | > 100 | > 100 | > 100 | 47.4
